Test results from the supplement of paper PMC11368000.

What was measured:
Settings in all cases: exposure time: 90 min
[1] = tested on: 1083 (donor line of iPSC-derived cardiomyocytes); experiment: POD (EC05) for decrease in beat frequency (negative chronotrope) vs vehicle; higher = less potent (higher point of departure)
Experimental: (§1)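 Human iPSC-derived cardiomyocytes from 16 donors were exposed for 90 min at 37 °C to each PFAS at 0.1, 1, 10 and 100 µM in 0.5% DMSO, 384-well plates. Kinetic Ca2+ flux (FLIPR) and Hoechst nuclei counts were normalised to vehicle wells and fitted with a hierarchical Bayesian Hill model to give donor-specific PODs: EC05 for beat-rate increase or decrease and for decay-to-rise ratio increase (QT proxy), EC95 for peak-frequency loss (asystole), EC10 for total cell number loss. 0.03 µM is the lower bound.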

[2] = tested on: 11235 (donor line of iPSC-derived cardiomyocytes); experiment: as above
Experimental: as §1

[3] = tested on: 1309 (donor line of iPSC-derived cardiomyocytes); experiment: as above
Experimental: as §1

[4] = tested on: 1368 (donor line of iPSC-derived cardiomyocytes); experiment: as above
Experimental: as §1

[5] = tested on: 1392 (donor line of iPSC-derived cardiomyocytes); experiment: as above
Experimental: as §1

[6] = tested on: 1434 (donor line of iPSC-derived cardiomyocytes); experiment: as above
Experimental: as §1

[7] = tested on: 1516 (donor line of iPSC-derived cardiomyocytes); experiment: as above
Experimental: as §1

[8] = tested on: 1518 (donor line of iPSC-derived cardiomyocytes); experiment: as above
Experimental: as §1

[9] = tested on: 1531 (donor line of iPSC-derived cardiomyocytes); experiment: as above
Experimental: as §1

[10] = tested on: 1535 (donor line of iPSC-derived cardiomyocytes); experiment: as above
Experimental: as §1

[11] = tested on: 1565 (donor line of iPSC-derived cardiomyocytes); experiment: as above
Experimental: as §1

[12] = tested on: 20032 (donor line of iPSC-derived cardiomyocytes); experiment: as above
Experimental: as §1

[13] = tested on: 20084 (donor line of iPSC-derived cardiomyocytes); experiment: as above
Experimental: as §1

[14] = tested on: 30145 (donor line of iPSC-derived cardiomyocytes); experiment: as above
Experimental: as §1

[15] = tested on: 30171 (donor line of iPSC-derived cardiomyocytes); experiment: as above
Experimental: as §1

[16] = tested on: 11235; experiment: POD (EC05) for increase in Ca2+ transient decay-to-rise ratio (QT prolongation) vs vehicle; higher = less potent (higher point of departure)
Outline: (§2)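 For each of 16 donors, iPSC-derived human cardiomyocytes were cultured 14 days in gelatin-coated 384-well plates and given a fluorescent Ca2+ dye for 2 h. Exposure lasted 90 min at 37 °C at 0.1, 1, 10 and 100 µM final, with 0.5% DMSO, and a FLIPR Tetra captured Ca2+ flux at 8 frames/s over 100 s both before and afterwards. Points of departure per donor were estimated by hierarchical Bayesian Hill fits to vehicle-normalised beat frequency, decay-to-rise ratio or peak frequency, using thresholds of 5% change, or 95% loss for peak frequency.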

[17] = tested on: 1368; experiment: as above
Outline: as §2

[18] = tested on: 1434; experiment: as above
Outline: as §2

[19] = tested on: 1565; experiment: as above
Outline: as §2

[20] = tested on: 30171; experiment: as above
Outline: as §2

Measured: POD vs vehicle

O=C(O)C(F)(F)OC(F)(F)C(F)(F)OC(F)(F)C(F)(F)OC(F)(F)C(F)(F)C(F)(F)C(F)(F)F [Perfluoro-3,6,9-trioxatridecanoic_acid]
3.38 µM: [9]
77.9 µM: [13]
79.4 µM: [10]
42 µM: [12]
23.1 µM: [2]
22.2 µM: [7]
21.8 µM: [1]
20.7 µM: [15]
22.8 µM: [6]
> 100 µM: all other assays above

O=C(O)C(F)(F)C(F)(F)C(F)(F)C(F)(F)C(=O)O [Octafluoroadipic_acid]
> 100 µM: all assays above

CC(O)C(F)(F)C(F)(F)F (stereo not given) [1-Pentafluoroethylethanol]
> 100 µM: all assays above

O=C(O)C(F)(F)C(F)(F)C(F)(F)C(F)(F)F [Perfluoropentanoic_acid]
> 100 µM: all assays above

OCC(F)(F)C(F)(F)C(F)(F)CO [Hexafluoroamylene_glycol]
> 100 µM: all assays above

NC(=O)C(F)(F)C(F)(F)C(F)(F)C(F)(F)C(N)=O [Octafluoroadipamide]
> 100 µM: all assays above

O=S(=O)(OCC(F)(F)F)C(F)(F)C(F)(F)C(F)(F)C(F)(F)F [2,2,2-Trifluoroethyl_perfluorobutanesulfonate]
49.1 µM: [15]
> 100 µM: all other assays above

COC(=O)C(F)(F)C(F)(F)OC(F)(C(F)(F)F)C(F)(F)OC(F)=C(F)F (stereo not given) [Methyl_perfluoro(3-(1-ethenyloxypropan-2-yloxy)propanoate)]
> 100 µM: all assays above

O=C(O)C(F)(F)OC(F)(F)C(F)(F)OC(F)(F)C(=O)O [Perfluoro-3,6-dioxaoctane-1,8-dioic_acid]
> 100 µM: all assays above
